In BindingDB's records for doi:10.1111/j.1747-0285.2009.00924.x (Nankai University, 2010):

Biological target: T1, Ketol-acid reductoisomerase (NADP(+)) (Escherichia coli (strain K12), UniProt P05793)
T1 sequence (P05793 whole entry): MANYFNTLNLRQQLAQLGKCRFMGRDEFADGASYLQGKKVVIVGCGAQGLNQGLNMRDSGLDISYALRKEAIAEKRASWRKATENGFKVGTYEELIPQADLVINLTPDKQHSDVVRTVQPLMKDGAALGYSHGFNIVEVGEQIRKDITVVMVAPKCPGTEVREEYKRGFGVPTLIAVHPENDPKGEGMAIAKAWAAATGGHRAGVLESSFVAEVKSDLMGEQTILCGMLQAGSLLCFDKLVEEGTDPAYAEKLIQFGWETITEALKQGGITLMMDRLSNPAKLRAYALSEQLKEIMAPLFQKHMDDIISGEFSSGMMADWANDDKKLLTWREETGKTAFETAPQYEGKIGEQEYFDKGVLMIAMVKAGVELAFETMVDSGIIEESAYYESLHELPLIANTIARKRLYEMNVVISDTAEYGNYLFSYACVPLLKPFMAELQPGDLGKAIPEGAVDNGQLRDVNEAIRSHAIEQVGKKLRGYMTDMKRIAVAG
Assay: Enzyme Inhibition Assay
Conditions: pH 8; 30 °C
Method: Inhibition of E. coli KARI (ketol-acid reductoisomerase) is time dependent, and activity was measured by the decrease in A340 at 30 C in solutions containing 0.2 mM […], 1 mM MgCl2, substrate 2-acetolactate and inhibitor in 0.1 M phosphate buffer at pH 8.0.

SMILES | Ki [µM]
O=C(O)C1(C(=O)O)CC1 [Cyclopropane, 3] | 76.6
N#CC1(C(=O)O)CC1 [Cyclopropane, 4] | 95.3
NC(=O)C1(C(=O)O)CC1 [Cyclopropane, 5] | 31.2
CC(C)N(O)C(=O)C(=O)O [N-hydroxy-N-isopropyloxamate, IpOHA] | 2.75
